Source: patent publication US20250333407A1, “Compounds and Their Use for Treatment of Hemoglobinopathies” (Bristol-Myers Squibb Company, priority 2024, published 2025)

Experiments:
Type in all cases: cell-based
ZBTB7A = target: T1, ZBTB7A (Homo sapiens, UniProt O95365+Q96SW2); assay: HUDEP-2 ZBTB7A HiBiT degradation assay; settings: HiBiT-tagged ZBTB7A degradation in HUDEP-2 cells, 24 hours of treatment; read-out: ZBTB7A EC50
T1 construct: HUDEP-2 cells engineered to express a HiBiT tag in either the WIZ (Widely interspaced zinc finger) or ZBTB7A
T1 sequence (O95365 whole entry): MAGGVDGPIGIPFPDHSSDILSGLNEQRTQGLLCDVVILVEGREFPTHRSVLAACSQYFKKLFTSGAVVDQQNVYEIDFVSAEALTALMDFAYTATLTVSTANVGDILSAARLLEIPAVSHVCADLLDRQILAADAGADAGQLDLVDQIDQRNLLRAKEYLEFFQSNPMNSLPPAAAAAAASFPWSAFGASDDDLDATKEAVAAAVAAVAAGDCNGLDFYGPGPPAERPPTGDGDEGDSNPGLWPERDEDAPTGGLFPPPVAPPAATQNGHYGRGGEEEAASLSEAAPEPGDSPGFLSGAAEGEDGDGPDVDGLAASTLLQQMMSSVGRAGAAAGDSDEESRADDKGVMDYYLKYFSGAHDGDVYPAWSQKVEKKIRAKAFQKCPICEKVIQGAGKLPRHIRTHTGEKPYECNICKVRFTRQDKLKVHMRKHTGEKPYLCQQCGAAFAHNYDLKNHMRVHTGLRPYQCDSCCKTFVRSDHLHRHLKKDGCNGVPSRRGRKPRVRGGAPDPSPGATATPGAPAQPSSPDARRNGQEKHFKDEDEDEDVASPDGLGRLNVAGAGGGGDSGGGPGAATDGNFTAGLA
T1 sequence (Q96SW2 whole entry): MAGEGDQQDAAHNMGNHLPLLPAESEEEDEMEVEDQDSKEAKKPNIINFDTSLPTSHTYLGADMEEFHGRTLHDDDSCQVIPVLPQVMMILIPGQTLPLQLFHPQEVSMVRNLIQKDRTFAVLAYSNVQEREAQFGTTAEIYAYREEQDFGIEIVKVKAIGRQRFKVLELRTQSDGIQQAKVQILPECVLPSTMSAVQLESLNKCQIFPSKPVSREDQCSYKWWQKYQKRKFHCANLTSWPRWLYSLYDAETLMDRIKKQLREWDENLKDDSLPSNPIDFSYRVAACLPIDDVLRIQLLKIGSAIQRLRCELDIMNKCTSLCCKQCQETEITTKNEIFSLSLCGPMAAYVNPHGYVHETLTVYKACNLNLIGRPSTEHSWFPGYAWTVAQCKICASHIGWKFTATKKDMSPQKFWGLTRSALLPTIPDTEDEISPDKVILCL
T1 sequence (Q16531 whole entry partner): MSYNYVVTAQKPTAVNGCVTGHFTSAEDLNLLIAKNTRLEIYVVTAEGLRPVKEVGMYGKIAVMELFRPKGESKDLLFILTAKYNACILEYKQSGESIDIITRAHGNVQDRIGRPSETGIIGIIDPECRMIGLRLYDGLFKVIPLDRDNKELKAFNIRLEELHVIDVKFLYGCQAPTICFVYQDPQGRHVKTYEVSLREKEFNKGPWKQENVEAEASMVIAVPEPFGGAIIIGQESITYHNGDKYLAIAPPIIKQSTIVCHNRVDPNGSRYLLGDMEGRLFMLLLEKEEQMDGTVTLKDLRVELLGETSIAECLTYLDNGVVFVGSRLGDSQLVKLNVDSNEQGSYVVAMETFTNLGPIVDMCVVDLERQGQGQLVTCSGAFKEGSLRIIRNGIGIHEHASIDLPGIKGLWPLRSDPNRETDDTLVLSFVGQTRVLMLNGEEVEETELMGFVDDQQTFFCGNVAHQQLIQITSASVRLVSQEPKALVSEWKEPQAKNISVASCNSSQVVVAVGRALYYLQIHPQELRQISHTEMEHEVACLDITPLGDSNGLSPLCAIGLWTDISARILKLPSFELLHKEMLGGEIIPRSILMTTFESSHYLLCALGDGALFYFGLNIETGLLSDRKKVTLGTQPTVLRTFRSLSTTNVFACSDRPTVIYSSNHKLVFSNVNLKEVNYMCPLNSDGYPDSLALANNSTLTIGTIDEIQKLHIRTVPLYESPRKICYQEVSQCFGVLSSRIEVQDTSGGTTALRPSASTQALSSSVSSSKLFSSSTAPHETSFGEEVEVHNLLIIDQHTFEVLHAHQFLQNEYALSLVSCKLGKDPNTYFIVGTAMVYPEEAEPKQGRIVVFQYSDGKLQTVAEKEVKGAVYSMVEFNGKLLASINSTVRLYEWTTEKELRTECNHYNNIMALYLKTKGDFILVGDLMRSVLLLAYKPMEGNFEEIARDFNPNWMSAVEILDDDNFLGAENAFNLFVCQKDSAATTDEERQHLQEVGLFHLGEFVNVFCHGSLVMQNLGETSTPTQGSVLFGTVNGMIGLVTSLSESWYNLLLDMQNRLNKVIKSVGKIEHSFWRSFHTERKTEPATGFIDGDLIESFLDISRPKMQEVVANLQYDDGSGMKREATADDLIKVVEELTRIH
Experimental: (§1) WIZ Assay and ZBTB7A EC50 Assays. The HiBiT degradation assays for WIZ and ZBTB7A in HUDEP-2 cells were performed as described below. HUDEP-2 cells engineered to express a HiBiT tag in either the WIZ (Widely interspaced zinc finger) or ZBTB7A (Zinc Finger And BTB Domain Containing 7A) proteins were maintained in low attachment flasks in StemSpan SFEM II media supplemented with Penicillin-Streptomycin (50 U/mL), rhSCF (50 ng/mL), rhEPO (3 IU/mL), dexamethasone (0.4 μg/mL) and doxycycline (1 μg/mL). Prior to start of the assay, cell count and viability were measured by trypan blue exclusion using the Vi-cell XR cell viability analyzer.
For the HUDEP-2 ZBTB7A HiBiT assay, cell count and viability were measured by trypan blue exclusion using the Vi-cell XR cell viability analyzer and the cells were transferred to a 50 mL conical and centrifuged at 500 g for five minutes. Cells were resuspended in fresh IMDM media supplemented with L-Glutamine (1×), Penicillin-Streptomycin (50 U/mL), holo-transferrin (330 μg/mL), heparin (2 IU/mL), r-human Insulin (10 μg/mL), rhEPO (3 IU/mL), rhSCF (100 ng/mL)+Dox (1 μg/mL) and 5% human plasma in low attachment flasks, which were placed in a 37° C. incubator with 5% CO2. After 48 hours, cell count and viability were measured by trypan blue exclusion using the Vi-cell XR cell viability analyzer. The HUDEP-2 ZBTB7A cells were transferred to a 50 mL conical, centrifuged at 500 g for five minutes and resuspended at a density of 1.0×10^6 cells/ml in IMDM media supplemented with L-Glutamine (1×), Penicillin-Streptomycin (50 U/mL), holo-transferrin (330 μg/mL), heparin (2 IU/mL), r-human Insulin (10 μg/mL), rhEPO (3 IU/mL), rhSCF (100 ng/mL)+Dox (1 μg/mL) and 5% human plasma. Forty microliters of cell suspension was dispensed into 384-well Low Flange White Flat Bottom Polystyrene TC-treated Microplates containing pre-dispensed compounds, using a VIAFLO 384 liquid hander, and placed in a 37° C. incubator with 5% CO2. […] After 24 hours of treatment, 40 μL Nano-Glo HiBiT Lytic Detection System reagent was dispensed into each well using a VIAFLO 384 liquid hander. Plates were incubated for 25 minutes at room temperature and the luminescence was read as relative luminescent units using the EnVision plate reader. EC50 and Y-min values were calculated using curves calculated from dotmatics software after the normalization to the DMSO control of 10 different concentrations: 10, 3.33, 1.11, 0.37, 0.12, 0.04 0.0137, 0.0046, 0.0015 and […] respectively.

HbF = HbF HiBiT induction assay in HUDEP-2 cells; settings: HUDEP-2 cells with HiBiT tag in HBG1/2, 72 hours of treatment; area under the dose response curve, higher AUC = greater HbF induction
Experimental: HbF HiBiT induction assay. The HiBiT induction assay for HbF in HUDEP-2 cells was performed as described below. HUDEP-2 cells engineered to express a HiBiT tag in HBG1/2 were maintained at a density of 0.1-1×10^6 cells/ml in StemSpan SFEM II supplemented with 1% penicillin/streptomycin, hSCF (50 ng/mL), erythropoietin (EPO; 3 IU/mL), dexamethasone (DEX; 0.4 μg/mL), and doxycycline hyclate (DOX; 1 μg/mL). The cells were cultured in low adherence flasks, in a humidified incubator, set at 37° C. with 5% CO2. Cell counts and viability were measured by trypan blue exclusion using the Vi-CELL XR cell viability analyzer and the cell growth was consistently maintained in log phase.
Prior to the start of experiments, HbF HiBiT-tagged HUDEP-2 cells were transferred to a 50 mL conical and centrifuged at 500×g for 5 minutes, the supernatant removed, and the pellet washed in 5 mL of 1×PBS. The washed cells were centrifuged again at 500×g for 5 minutes and resuspended in IMDM containing; 1×glutamine, 1×penicillin/streptomycin, holo-transferrin (330 μg/mL), heparin (2 IU/mL), r-human insulin (10 μg/mL), EPO (3 IU/mL), 5% human plasma, hSCF (100 ng/mL) and DOX (1 μg/mL) to a final density of 0.3×10^6 cells/mL. Forty microliters of cell suspension were dispensed into 384-well Low Flange White Flat Bottom Polystyrene TC-treated Microplates containing pre-dispensed compounds, using a VIAFLO 384 liquid hander, and placed in a humidified incubator at 37° C. with 5% CO2. […] After 72 hours of treatment, 40 μL of Nano-Glo HiBiT Lytic Solution (prepared according to manufacturer's instructions) were dispensed into each well using a VIAFLO 384 liquid handler, and the plates were shaken for 20 seconds. Plates were incubated for 20 minutes at room temperature, and the luminescence was read as relative luminescent units using an EnVision plate reader.
Dose response curves were generated, and EC50, Ymax, and then area under the curve (AUC) values were calculated. HbF induction was measured using the calculated area under the curve (AUC) value, with higher AUC values indicative of greater HbF induction relative to lower AUC values.

WIZ = target: T2, WIZ (Homo sapiens, UniProt O95785+Q96SW2); assay: HUDEP-2 WIZ HiBiT degradation assay; settings: HiBiT-tagged WIZ degradation in HUDEP-2 cells, 24 hours of treatment; read-out: WIZ EC50
T2 construct: HUDEP-2 cells engineered to express a HiBiT tag in either the WIZ (Widely interspaced zinc finger) or ZBTB7A
T2 sequence (O95785 whole entry): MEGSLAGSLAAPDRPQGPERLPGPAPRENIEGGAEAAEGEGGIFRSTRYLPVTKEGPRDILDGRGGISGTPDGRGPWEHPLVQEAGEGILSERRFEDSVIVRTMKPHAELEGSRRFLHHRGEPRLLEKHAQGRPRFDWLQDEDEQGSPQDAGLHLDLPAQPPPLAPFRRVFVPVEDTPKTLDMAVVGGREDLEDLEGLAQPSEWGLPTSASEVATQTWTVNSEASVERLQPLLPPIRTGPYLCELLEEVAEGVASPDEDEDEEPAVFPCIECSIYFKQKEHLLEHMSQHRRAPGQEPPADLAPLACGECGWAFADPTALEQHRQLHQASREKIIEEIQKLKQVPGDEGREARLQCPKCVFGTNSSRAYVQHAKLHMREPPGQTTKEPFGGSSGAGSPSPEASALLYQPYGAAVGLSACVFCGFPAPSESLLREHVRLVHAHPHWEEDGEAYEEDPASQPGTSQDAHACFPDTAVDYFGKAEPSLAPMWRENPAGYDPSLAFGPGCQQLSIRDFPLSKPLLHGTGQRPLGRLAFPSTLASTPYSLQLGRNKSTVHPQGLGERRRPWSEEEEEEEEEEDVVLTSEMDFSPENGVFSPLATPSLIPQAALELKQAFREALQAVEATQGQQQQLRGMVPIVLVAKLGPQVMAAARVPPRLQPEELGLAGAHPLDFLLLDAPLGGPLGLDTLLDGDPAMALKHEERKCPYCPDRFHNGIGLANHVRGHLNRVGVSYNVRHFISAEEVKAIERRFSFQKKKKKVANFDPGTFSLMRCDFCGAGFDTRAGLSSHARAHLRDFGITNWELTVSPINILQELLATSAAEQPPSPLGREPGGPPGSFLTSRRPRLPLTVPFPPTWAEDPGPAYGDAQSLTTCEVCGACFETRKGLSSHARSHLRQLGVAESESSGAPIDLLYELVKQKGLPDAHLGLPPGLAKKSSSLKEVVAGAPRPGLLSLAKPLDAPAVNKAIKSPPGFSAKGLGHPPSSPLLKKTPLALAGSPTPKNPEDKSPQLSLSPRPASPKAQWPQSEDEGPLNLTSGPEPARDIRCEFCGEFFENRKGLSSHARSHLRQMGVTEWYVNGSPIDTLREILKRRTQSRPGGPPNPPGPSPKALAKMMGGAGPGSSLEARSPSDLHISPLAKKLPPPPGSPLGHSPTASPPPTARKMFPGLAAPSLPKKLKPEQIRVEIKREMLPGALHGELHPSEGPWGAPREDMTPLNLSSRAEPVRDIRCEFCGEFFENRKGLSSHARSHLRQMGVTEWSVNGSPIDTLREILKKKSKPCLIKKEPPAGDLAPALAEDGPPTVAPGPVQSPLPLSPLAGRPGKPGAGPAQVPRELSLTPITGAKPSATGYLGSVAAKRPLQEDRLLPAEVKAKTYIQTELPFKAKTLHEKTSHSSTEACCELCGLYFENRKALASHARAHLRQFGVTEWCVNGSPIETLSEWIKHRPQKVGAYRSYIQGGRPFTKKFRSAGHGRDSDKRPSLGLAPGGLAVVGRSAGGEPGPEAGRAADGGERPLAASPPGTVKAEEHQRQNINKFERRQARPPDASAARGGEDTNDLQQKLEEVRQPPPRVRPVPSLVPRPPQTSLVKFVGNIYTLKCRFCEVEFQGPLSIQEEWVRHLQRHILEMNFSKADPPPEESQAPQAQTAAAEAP
T2 sequence (Q96SW2 whole entry): as the sequence (Q96SW2 whole entry) above
T2 sequence (Q16531 whole entry partner): as the sequence (Q16531 whole entry partner) above
Experimental: as §1
For the HUDEP-2 WIZ HiBiT assay, cells were transferred to a 50 mL conical and centrifuged at 500 g for five minutes. Cells were resuspended in fresh StemSpan SFEM II media supplemented with Penicillin-Streptomycin (50 U/mL), rhSCF (50 ng/mL), rhEPO (3 IU/mL), dexamethasone (0.4 μg/mL) and doxycycline (1 μg/mL) at a density of 1.0×10^6 cells/ml. Forty microliters of cell suspension was dispensed into 384-well Low Flange White Flat Bottom Polystyrene TC-treated Microplates containing pre-dispensed compounds, using a VIAFLO 384 liquid hander, and placed in a 37° C. incubator with 5% CO2. […] After 24 hours of treatment, 40 μL Nano-Glo HiBiT Lytic Detection System reagent was dispensed into each well using a VIAFLO 384 liquid hander. Plates were incubated for 25 minutes at room temperature and the luminescence was read as relative luminescent units using the EnVision plate reader. EC50 and Y-min values were calculated using curves calculated from dotmatics software after the normalization to the DMSO control of 10 different concentrations: 10, 3.33, 1.11, 0.37, 0.12, 0.04 0.0137, 0.0046, 0.0015 and […] respectively.

Structure (SMILES)	DC50 (ZBTB7A) [nM]	HBF AUC (HbF)	DC50 (WIZ) [nM]
Cc1cc(-c2cc3c(cc2Nc2cccc4c2C(=O)N([C@H]2CCC(=O)NC2=O)C4=O)N(C)C(=O)[C@@H](C)O3)cc(C)n1 [Compound 24, 4-(((R)-7-(2,6-dimethylpyridin-4-yl)-2,4-dimethyl-3-oxo-3,4-dihydro-2H-benzo[b][1,4]oxazin-6-yl)amino)-2-((S)-2,6-dioxopiperidin-3-yl)isoindoline-1,3-dione]	26	+++ (+++ = AUC ≥ 150)	14
CCN1C(=O)COc2cc(-c3ccnc(C)c3)c(Nc3cccc4c3C(=O)N([C@H]3CCC(=O)NC3=O)C4=O)cc21 [Compound 25, (S)-2-(2,6-dioxopiperidin-3-yl)-4-((4-ethyl-7-(2-methylpyridin-4-yl)-3-oxo-3,4-dihydro-2H-benzo[b][1,4]oxazin-6-yl)amino)isoindoline-1,3-dione]	24	+ (+ = 15 ≤ AUC < 100)	18
Cc1cc(-c2cc3c(cc2Nc2cccc4c2C(=O)N([C@H]2CCC(=O)NC2=O)C4=O)N(C2CC2)C(=O)CO3)ccn1 [Compound 26, (S)-4-((4-cyclopropyl-7-(2-methylpyridin-4-yl)-3-oxo-3,4-dihydro-2H-benzo[b][1,4]oxazin-6-yl)amino)-2-(2,6-dioxopiperidin-3-yl)isoindoline-1,3-dione]	98	++ (++ = 100 ≤ AUC < 150)	13
Cc1cc(-c2cc3c(cc2Nc2cccc4c2C(=O)N([C@H]2CCC(=O)NC2=O)C4=O)N(C)C(=O)[C@@H](C)O3)c(F)cn1 [Compound 27, 2-((S)-2,6-dioxopiperidin-3-yl)-4-(((R)-7-(5-fluoro-2-methylpyridin-4-yl)-2,4-dimethyl-3-oxo-3,4-dihydro-2H-benzo[b][1,4]oxazin-6-yl)amino)isoindoline-1,3-dione]	11	+ (+ = 15 ≤ AUC < 100)	6
COc1cc(-c2cc3c(cc2Nc2cccc4c2C(=O)N([C@H]2CCC(=O)NC2=O)C4=O)N(C)C(=O)CO3)c(F)cn1 [Compound 28, (S)-2-(2,6-dioxopiperidin-3-yl)-4-((7-(5-fluoro-2-methoxypyridin-4-yl)-4-methyl-3-oxo-3,4-dihydro-2H-benzo[b][1,4]oxazin-6-yl)amino)isoindoline-1,3-dione]	13	+++ (+++ = AUC ≥ 150)	11
COc1cc(-c2cc3c(cc2Nc2cccc4c2C(=O)N([C@H]2CCC(=O)NC2=O)C4=O)N(C)C(=O)[C@H](C)O3)c(F)cn1 [Compound 29, 2-((S)-2,6-dioxopiperidin-3-yl)-4-(((S)-7-(5-fluoro-2-methoxypyridin-4-yl)-2,4-dimethyl-3-oxo-3,4-dihydro-2H-benzo[b][1,4]oxazin-6-yl)amino)isoindoline-1,3-dione]	23	+ (+ = 15 ≤ AUC < 100)	5
COc1cc(-c2cc3c(cc2Nc2cccc4c2C(=O)N([C@H]2CCC(=O)NC2=O)C4=O)N(C)C(=O)[C@@H](C)O3)c(F)cn1 [Compound 30, 2-((S)-2,6-dioxopiperidin-3-yl)-4-(((R)-7-(5-fluoro-2-methoxypyridin-4-yl)-2,4-dimethyl-3-oxo-3,4-dihydro-2H-benzo[b][1,4]oxazin-6-yl)amino)isoindoline-1,3-dione]	19	++ (++ = 100 ≤ AUC < 150)	11
CC(=O)N1CCC(c2cc3c(cc2Nc2cccc4c2C(=O)N([C@H]2CCC(=O)NC2=O)C4=O)N(C)C(=O)[C@H](C)O3)CC1 [Compound 31, 4-(((S)-7-(1-acetylpiperidin-4-yl)-2,4-dimethyl-3-oxo-3,4-dihydro-2H-benzo[b][1,4]oxazin-6-yl)amino)-2-((S)-2,6-dioxopiperidin-3-yl)isoindoline-1,3-dione]	35	+++ (+++ = AUC ≥ 150)	6
CC(=O)N1CCC(c2cc3c(cc2Nc2cccc4c2C(=O)N([C@H]2CCC(=O)NC2=O)C4=O)N(C)C(=O)[C@@H](C)O3)CC1 [Compound 32, 4-(((R)-7-(1-acetylpiperidin-4-yl)-2,4-dimethyl-3-oxo-3,4-dihydro-2H-benzo[b][1,4]oxazin-6-yl)amino)-2-((S)-2,6-dioxopiperidin-3-yl)isoindoline-1,3-dione]	14	+++ (+++ = AUC ≥ 150)	5
COc1cc(-c2cc3c(cc2Nc2cccc4c2C(=O)N([C@H]2CCC(=O)NC2=O)C4=O)N(C)C(=O)[C@@H](C)O3)ccn1 [Compound 33, 2-((S)-2,6-dioxopiperidin-3-yl)-4-(((R)-7-(2-methoxypyridin-4-yl)-2,4-dimethyl-3-oxo-3,4-dihydro-2H-benzo[b][1,4]oxazin-6-yl)amino)isoindoline-1,3-dione]	24	+ (+ = 15 ≤ AUC < 100)	21
COc1nccc(-c2cc3c(cc2Nc2cccc4c2C(=O)N([C@H]2CCC(=O)NC2=O)C4=O)N(C)C(=O)CO3)c1F [Compound 34, (S)-2-(2,6-dioxopiperidin-3-yl)-4-((7-(3-fluoro-2-methoxypyridin-4-yl)-4-methyl-3-oxo-3,4-dihydro-2H-benzo[b][1,4]oxazin-6-yl)amino)isoindoline-1,3-dione]	11	+++ (+++ = AUC ≥ 150)	11
